Test: Stability of cannabinoid entourage and Vitamin E components of the powder concentrate by LCMSMS
Format: physicochemical
Conditions: for Stability of Plant-Derived Cannabinoid Compounds in Powder Concentrate / Stability of Vitamin Es in Powder Concentrate: powder stored at 21-25° C.
Experimental: At each time period, 0.05 g of powder was dissolved in 10 ml-15 of ethanol, diluted to fall within the analytical range, and injected into the LCMSMS for analysis.

CCCCCc1cc(O)c2c(c1)OC(C)(C)[C@@H]1CCC(C)=C[C@@H]21 [D9 THC, delta-9-tetrahydrocannabinol, reference compound]
degradation over the entire period (in words) (powder concentrate stored at 21-25° C., 570 days): no significant degradation | Stability of Plant-Derived Cannabinoid Compounds in Powder Concentrate (0 days): 2.55 mg/g powder | Stability of Plant-Derived Cannabinoid Compounds in Powder Concentrate (1 days): 2.55 mg/g powder | Stability of Plant-Derived Cannabinoid Compounds in Powder Concentrate (2 days): 2.46 mg/g powder | Stability of Plant-Derived Cannabinoid Compounds in Powder Concentrate (3 days): 2.63 mg/g powder | Stability of Plant-Derived Cannabinoid Compounds in Powder Concentrate (5 days): 2.66 mg/g powder | Stability of Plant-Derived Cannabinoid Compounds in Powder Concentrate (8 days): 2.49 mg/g powder | Stability of Plant-Derived Cannabinoid Compounds in Powder Concentrate (9 days): 2.49 mg/g powder | Stability of Plant-Derived Cannabinoid Compounds in Powder Concentrate (10 days): 2.60 mg/g powder | Stability of Plant-Derived Cannabinoid Compounds in Powder Concentrate (11 days): 2.58 mg/g powder | Stability of Plant-Derived Cannabinoid Compounds in Powder Concentrate (12 days): 2.65 mg/g powder | Stability of Plant-Derived Cannabinoid Compounds in Powder Concentrate (15 days): 2.49 mg/g powder | Stability of Plant-Derived Cannabinoid Compounds in Powder Concentrate (16 days): 2.54 mg/g powder | Stability of Plant-Derived Cannabinoid Compounds in Powder Concentrate (17 days): 2.54 mg/g powder | Stability of Plant-Derived Cannabinoid Compounds in Powder Concentrate (18 days): 2.55 mg/g powder | Stability of Plant-Derived Cannabinoid Compounds in Powder Concentrate (19 days): 2.51 mg/g powder | Stability of Plant-Derived Cannabinoid Compounds in Powder Concentrate (22 days): 2.46 mg/g powder | Stability of Plant-Derived Cannabinoid Compounds in Powder Concentrate (23 days): 2.65 mg/g powder | Stability of Plant-Derived Cannabinoid Compounds in Powder Concentrate (24 days): 2.60 mg/g powder | Stability of Plant-Derived Cannabinoid Compounds in Powder Concentrate (25 days): 2.55 mg/g powder | Stability of Plant-Derived Cannabinoid Compounds in Powder Concentrate (26 days): 2.52 mg/g powder | Stability of Plant-Derived Cannabinoid Compounds in Powder Concentrate (29 days): 2.47 mg/g powder | Stability of Plant-Derived Cannabinoid Compounds in Powder Concentrate (30 days): 2.66 mg/g powder | Stability of Plant-Derived Cannabinoid Compounds in Powder Concentrate (60 days): 2.66 mg/g powder | Stability of Plant-Derived Cannabinoid Compounds in Powder Concentrate (90 days): 2.49 mg/g powder | Stability of Plant-Derived Cannabinoid Compounds in Powder Concentrate (120 days): 2.66 mg/g powder | Stability of Plant-Derived Cannabinoid Compounds in Powder Concentrate (150 days): 2.61 mg/g powder | Stability of Plant-Derived Cannabinoid Compounds in Powder Concentrate (180 days): 2.59 mg/g powder | Stability of Plant-Derived Cannabinoid Compounds in Powder Concentrate (210 days): 2.54 mg/g powder | Stability of Plant-Derived Cannabinoid Compounds in Powder Concentrate (240 days): 2.53 mg/g powder | Stability of Plant-Derived Cannabinoid Compounds in Powder Concentrate (270 days): 2.47 mg/g powder | Stability of Plant-Derived Cannabinoid Compounds in Powder Concentrate (300 days): 2.57 mg/g powder | Stability of Plant-Derived Cannabinoid Compounds in Powder Concentrate (330 days): 2.49 mg/g powder | Stability of Plant-Derived Cannabinoid Compounds in Powder Concentrate (360 days): 2.58 mg/g powder | Stability of Plant-Derived Cannabinoid Compounds in Powder Concentrate (390 days): 2.48 mg/g powder | Stability of Plant-Derived Cannabinoid Compounds in Powder Concentrate (420 days): 2.53 mg/g powder | Stability of Plant-Derived Cannabinoid Compounds in Powder Concentrate (450 days): 2.61 mg/g powder | Stability of Plant-Derived Cannabinoid Compounds in Powder Concentrate (480 days): 2.65 mg/g powder | Stability of Plant-Derived Cannabinoid Compounds in Powder Concentrate (510 days): 2.64 mg/g powder | Stability of Plant-Derived Cannabinoid Compounds in Powder Concentrate (540 days): 2.47 mg/g powder | Stability of Plant-Derived Cannabinoid Compounds in Powder Concentrate (570 days): 2.64 mg/g powder

CC(=O)Oc1c(C)c(C)c2c(c1C)CCC(C)(CCC[C@H](C)CCC[C@H](C)CCCC(C)C)O2 (stereo partly drawn) [α-Tocopheryl acetate]
Stability of Vitamin Es in Powder Concentrate (0 days): 2.15 mg/g powder | Stability of Vitamin Es in Powder Concentrate (1 days): 2.19 mg/g powder | Stability of Vitamin Es in Powder Concentrate (2 days): 2.11 mg/g powder | Stability of Vitamin Es in Powder Concentrate (3 days): 2.18 mg/g powder | Stability of Vitamin Es in Powder Concentrate (5 days): 2.24 mg/g powder | Stability of Vitamin Es in Powder Concentrate (8 days): 2.23 mg/g powder | Stability of Vitamin Es in Powder Concentrate (9 days): 2.09 mg/g powder | Stability of Vitamin Es in Powder Concentrate (10 days): 2.09 mg/g powder | Stability of Vitamin Es in Powder Concentrate (11 days): 2.20 mg/g powder | Stability of Vitamin Es in Powder Concentrate (12 days): 2.17 mg/g powder | Stability of Vitamin Es in Powder Concentrate (15 days): 2.24 mg/g powder | Stability of Vitamin Es in Powder Concentrate (16 days): 2.15 mg/g powder | Stability of Vitamin Es in Powder Concentrate (17 days): 2.13 mg/g powder | Stability of Vitamin Es in Powder Concentrate (18 days): 2.10 mg/g powder | Stability of Vitamin Es in Powder Concentrate (19 days): 2.21 mg/g powder | Stability of Vitamin Es in Powder Concentrate (22 days): 2.11 mg/g powder | Stability of Vitamin Es in Powder Concentrate (23 days): 2.16 mg/g powder | Stability of Vitamin Es in Powder Concentrate (24 days): 2.09 mg/g powder | Stability of Vitamin Es in Powder Concentrate (25 days): 2.24 mg/g powder | Stability of Vitamin Es in Powder Concentrate (26 days): 2.10 mg/g powder | Stability of Vitamin Es in Powder Concentrate (29 days): 2.21 mg/g powder | Stability of Vitamin Es in Powder Concentrate (30 days): 2.08 mg/g powder | Stability of Vitamin Es in Powder Concentrate (60 days): 2.15 mg/g powder | Stability of Vitamin Es in Powder Concentrate (90 days): 2.24 mg/g powder | Stability of Vitamin Es in Powder Concentrate (120 days): 2.17 mg/g powder | Stability of Vitamin Es in Powder Concentrate (150 days): 2.18 mg/g powder | Stability of Vitamin Es in Powder Concentrate (180 days): 2.20 mg/g powder | Stability of Vitamin Es in Powder Concentrate (210 days): 2.15 mg/g powder | Stability of Vitamin Es in Powder Concentrate (240 days): 2.23 mg/g powder | Stability of Vitamin Es in Powder Concentrate (270 days): 2.13 mg/g powder | Stability of Vitamin Es in Powder Concentrate (300 days): 2.09 mg/g powder | Stability of Vitamin Es in Powder Concentrate (330 days): 2.15 mg/g powder | Stability of Vitamin Es in Powder Concentrate (360 days): 2.12 mg/g powder | Stability of Vitamin Es in Powder Concentrate (390 days): 2.21 mg/g powder | Stability of Vitamin Es in Powder Concentrate (420 days): 2.21 mg/g powder | Stability of Vitamin Es in Powder Concentrate (450 days): 2.07 mg/g powder | Stability of Vitamin Es in Powder Concentrate (480 days): 2.10 mg/g powder | Stability of Vitamin Es in Powder Concentrate (510 days): 2.15 mg/g powder | Stability of Vitamin Es in Powder Concentrate (540 days): 2.21 mg/g powder | Stability of Vitamin Es in Powder Concentrate (570 days): 2.13 mg/g powder

— US20260130395A1, “Water Dispersible Botanical Compositions” (Aquila Black Limited, priority 2021, published 2026)
